# Results published in patent US11376249B2 (priority 2017, dated 2022).
# Tests used:
# 5-HT2 receptor = test system: 5-HT2 receptor; set-up: species or system mice; settings: mouse, in vivo, po
# D2 = D2 (Homo sapiens, UniProt P14416); experiment: biochemical; settings: read-out: inhibition D2
# [1] = test system: GluR1 phosphorylation at Ser845; experiment: CNS phosphoprotein profile, GluR1; type: in vivo, mice; settings: 3 mg/kg, nucleus accumbens
# Protocol: (§1) A comprehensive molecular phosphorylation study is also carried out to examine the central nervous system (CNS) profile of the compounds of Example 1 and Example 3. The extent of protein phosphorylation for selected key central nervous system proteins is measured in mice nucleus accumbens.
# (§2) Mice were killed 30 minutes to 2 hours post-injection by focused microwave cranial irradiation, which preserves brain phosphoprotein as it exists at the time of death. The nucleus accumbens was then dissected from each mouse brain, sliced and frozen in liquid nitrogen. Samples were further prepared for phosphoprotein analysis via SDS-PAGE electrophoresis followed by phosphoprotein-specific immunoblotting, as described in Zhu H, et al., Brain Res. 2010 Jun. 25; 1342:11-23. Phosphorylation at each site was quantified, normalized to total levels of the protein (non-phosphorylated), and expressed as percent of the level of phosphorylation in vehicle-treated control mice.
# [2] = test system: tyrosine hydroxylase phosphorylation at Ser40; experiment: CNS phosphoprotein profile, TH; type: in vivo, mice; settings: 3 mg/kg, 30 or 60 minutes, nucleus accumbens
# Protocol: as §1, §2
# [3] = test system: ERK2 phosphorylation at Thr183 and Tyr185; experiment: CNS phosphoprotein profile, ERK2; type: in vivo, mice; settings: 3 mg/kg, nucleus accumbens
# Protocol: as §1, §2
# [4] = test system: NR2B phosphorylation at Tyr1472; experiment: CNS phosphoprotein profile, NR2B; type: in vivo, mice; settings: 3 mg/kg, 30-60 minutes, nucleus accumbens
# Protocol: as §1, §2
# D1 = D1 (Homo sapiens, UniProt P21728); experiment: biochemical; settings: read-out: inhibition D1
# Chain of D1 (P21728 whole entry): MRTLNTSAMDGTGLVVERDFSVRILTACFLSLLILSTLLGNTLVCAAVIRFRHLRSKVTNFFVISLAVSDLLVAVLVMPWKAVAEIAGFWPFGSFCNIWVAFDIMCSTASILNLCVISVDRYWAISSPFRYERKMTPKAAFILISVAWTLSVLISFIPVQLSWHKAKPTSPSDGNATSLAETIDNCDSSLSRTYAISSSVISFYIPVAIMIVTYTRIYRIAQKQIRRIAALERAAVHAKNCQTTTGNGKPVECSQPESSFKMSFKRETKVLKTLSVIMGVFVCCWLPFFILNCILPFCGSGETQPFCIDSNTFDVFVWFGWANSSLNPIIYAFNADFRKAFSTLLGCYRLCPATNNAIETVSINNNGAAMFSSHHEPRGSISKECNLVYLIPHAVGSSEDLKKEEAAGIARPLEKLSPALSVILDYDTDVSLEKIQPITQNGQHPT
# [5] = Rat tolerance/dependence study (28 day)
# Mu opiate receptor = Mu opiate receptor (Homo sapiens, UniProt P35372); type: binding
# Chain of Mu opiate receptor (P35372 whole entry): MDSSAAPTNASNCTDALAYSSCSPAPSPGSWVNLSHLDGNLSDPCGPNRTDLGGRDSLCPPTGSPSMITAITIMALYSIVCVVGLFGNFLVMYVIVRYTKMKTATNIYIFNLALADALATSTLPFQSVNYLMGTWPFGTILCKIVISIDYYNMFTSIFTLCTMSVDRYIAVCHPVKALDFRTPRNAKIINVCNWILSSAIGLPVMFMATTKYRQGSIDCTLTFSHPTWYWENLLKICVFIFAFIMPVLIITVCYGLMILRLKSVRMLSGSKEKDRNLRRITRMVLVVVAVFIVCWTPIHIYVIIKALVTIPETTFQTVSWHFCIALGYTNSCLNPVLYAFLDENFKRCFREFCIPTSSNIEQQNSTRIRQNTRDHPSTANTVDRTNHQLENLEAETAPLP
# [6] = Mouse marble-burying study (OCD model); type: in vivo, mice; settings: 20 mg/kg intraperitoneal just prior to test
# Text: The marble burying test is used to measure repetitive and anxiety-related behavior in rodents. It is based on the observation that rats and mice will bury either harmful or harmless objects in their bedding, and it has been used as an animal model to measure the effect of pharmacological interventions in treatment of repetitive behavior disorders, such as OCD.
# MPEP is a selective mGluR5 glutamate receptor antagonist. […] Mice in groups (1) are orally administered the vehicle, and mice in group (4) are given an intraperitoneal injection of MPEP just prior to the start of the test.
# The test is conducted in rectangular cages with 4-5 cm of wood chip bedding in a room with the window shades lowered and the door closed to minimize distractions. Fifteen clean marbles are evenly spaced on top of the bedding in three rows of five marbles. One mouse is placed in each cage. The mouse and cage is left undisturbed for 30 minutes. At the end of the test, the mouse is removed and the number of marbles buried to at least ⅔ of their depth is counted.
# Chain of D2 (P14416 whole entry): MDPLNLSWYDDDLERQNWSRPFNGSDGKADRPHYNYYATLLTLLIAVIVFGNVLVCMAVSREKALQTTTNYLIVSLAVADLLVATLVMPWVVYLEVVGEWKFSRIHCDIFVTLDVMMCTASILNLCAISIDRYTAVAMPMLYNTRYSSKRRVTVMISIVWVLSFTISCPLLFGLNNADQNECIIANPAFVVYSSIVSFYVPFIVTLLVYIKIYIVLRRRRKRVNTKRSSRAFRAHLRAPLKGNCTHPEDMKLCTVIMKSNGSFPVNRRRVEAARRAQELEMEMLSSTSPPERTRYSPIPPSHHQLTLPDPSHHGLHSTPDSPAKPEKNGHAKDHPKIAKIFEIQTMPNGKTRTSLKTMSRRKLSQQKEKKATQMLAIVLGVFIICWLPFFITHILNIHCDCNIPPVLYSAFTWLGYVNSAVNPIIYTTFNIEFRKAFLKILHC
structure (smiles),measurement,setting,value
"O=C1CN2c3c(cccc3[C@@H]3CN(CCCC(=O)c4ccc(F)cc4)CC[C@@H]32)N1 [Example 1, 4-((6bR,10aS)-2-oxo-2,3,6b,9,10,10a-hexahydro-1H,7H-pyrido[3′,4′:4,5]pyrrolo[1,2,3-de]quinoxalin-8-yl)-1-(4-fluoro-phenyl)-butan-1-one]",EC50 for reducing DOI-induced head twitches,5-HT2 receptor,0.23 mg/kg
same,inhibition at […],D2,47%
same,GluR1 phosphorylation at Ser845,[1],slight increase
same,effect on tyrosine hydroxylase phosphorylation at Ser40,[2],neither the compound of Example 1 nor of Example 3 has a significant effect
same,ERK2 phosphorylation at Thr183 and Tyr185,[3],slight decrease
same,effect on NR2B phosphorylation at Tyr1472,[4],neither the compound of Example 1 nor of Example 3 has a significant effect
"O=C1CN2c3c(cccc3[C@@H]3CN(CCCC(O)c4ccc(F)cc4)CC[C@@H]32)N1 (stereo partly drawn) [Example 2, 4-((6bR,10aS)-2-oxo-2,3,6b,9,10,10a-hexahydro-1H,7H-pyrido[3′,4′:4,5]pyrrolo[1,2,3-de]quinoxalin-8-yl)-1-(4-fluoro-phenyl)-butan-1-ol]",inhibition at […],D2,11%
same,inhibition at 0.1 µM,D1,13%
"O=C1CN2c3c(cccc3[C@@H]3CN(CCCOc4ccc(F)cc4)CC[C@@H]32)N1 [Example 3, (6bR,10aS)-8-(3-(4-fluorophenoxy)propyl)-6b,7,8,9,10,10a-hexahydro-1H-pyrido[3′,4′:4,5]pyrrolo[1,2,3-de]quinoxalin-2(3H)-one]",EC50 for reducing DOI-induced head twitches,5-HT2 receptor,0.44 mg/kg
same,predominant behavioral and physical effects,"[5]; 0.3 mg/kg, dosing phase","hunched posture, Straub tail and piloerection"
same,tolerance,"[5]; 0.3 and 3 mg/kg s.c., 28 days",does not produce tolerance
same,"effect on body weight, food and water intake or body temperature","[5]; 0.3 and 3 mg/kg s.c., on-dose or withdrawal phase",no significant effect
"CN1CCN2c3c(cccc31)[C@@H]1CN(CCCC(=O)c3ccc(F)cc3)CC[C@@H]12 [Formula A, reference compound]",activity at the Mu opiate receptor,Mu opiate receptor,not active
"CN1CCN2c3c(cccc31)[C@@H]1CN(CCCC(O)c3ccc(F)cc3)CC[C@@H]12 (stereo partly shown) [Formula B, reference compound]",EC50 for reducing DOI-induced head twitches,5-HT2 receptor,0.31 mg/kg
"Cc1cccc(C#Cc2ccccc2)n1 [MPEP, 2-methyl-6-(phenylethynyl)pyridine]",Marbles Buried,[6],0.2
"CN1CC[C@]23c4c5ccc(O)c4O[C@H]2[C@@H](O)C=C[C@H]3[C@H]1C5 [Morphine, reference compound]",tolerance and dependence,[5]; 30 mg/kg orally twice per day,clear signs of tolerance and dependence
